Data published in patent US9988423B2, “Organogels and emulsions for biological and non-biological applications” (Agency for Science, Technology and Research, priority 2012, dated 2018).
Residues, ends and D or L forms follow the SMILES beside them. No end group written: not given here.

Columns and labels:
[1] = Stability of peptide emulsions in oil:water mixtures (phase separation); type: physicochemical; conditions: 7.5 mg/ml peptide in oil:water 50:50, 80:20, 20:80; in comparison to controls
Protocol: 7.5 mg/ml Ac-IVD-COOH (L) were dissolved in solvent mixtures of oil:water (50:50, 80:20, 20:80).

[2] = Organogel formation (gelation) of peptides in organic solvents; type: physicochemical
Protocol: The exemplary peptides are Ac-ID-COOH (L) (dimer), Ac-IVD-COOH (L) (trimer) and Ac-LIVAGD-COOH (L) (hexamer). The organogels depicted in (C) are (1) Ac-ID-COOH (L) 10 mg/ml in ethyl acetate, (2) Ac-ID-COOH (L) 10 mg/ml in toluene, (3) Ac-IVD-COOH (L) 2 mg/ml in acetonitrile, (4) Ac-IVD-COOH (L) 2 mg/ml in ethyl acetate, (5) Ac-IVD-COOH (L) 5 mg/ml in acetone, (6) Ac-LIVAGD-COOH (L) 5 mg/ml in toluene, and (7) Ac-LIVAGD-COOH (L) 10 mg/ml in ethyl acetate.
The organogels depicted in (B) are (1) Ac-IVF-COOH (L) 5 mg/ml in ethyl acetate, (2) Ac-IVF-COOH (L) 5 mg/ml in acetone, (3) Ac-IVF-COOH (L) 5 mg/ml in acetonitrile, (4) Ac-IVF-COOH (L) 5 mg/ml in chloroform, (5) Ac-IVW-COOH (L) 5 mg/ml in acetone, (6) Ac-IVW-COOH (L) 5 mg/ml in ethyl acetate, and (7) Ac-LIVAGF-COOH (L) 5 mg/ml in acetone.
Gels with increasing concentration of Ac-IVD-COOH (L) were prepared in ethyl acetate. […] Organogels of 2 mg/ml and 5 mg/ml Ac-IVD-COOH (L) in ethyl acetate were analyzed by field emission scanning electron microscopy (FESEM). FIGS. 3B and 3C show the effect of the peptide concentration on organogelation for the hexamer Ac-LIVAGD-COOH (L) in acetonitrile or ethyl acetate.
The formulation of the peptide organogels depends on several factors, such as peptide concentration, polarity of the organic solvent, peptide sequence and type of solvent used (see FIG. 3 as well as FIGS. 10A-G and 11). For example, increasing the peptide concentration reduced the gelation time for the formulation of peptide organogels. Based on the experimental data disclosed herein and his general knowledge, a person skilled in the art would have no problems in figuring out suitable gelation conditions (e.g. a suitable organic solvent) for a given peptide. For example, a skilled person knows about the nature of an organic solvent with respect to its polarity or non-polarity. […] Obviously, there is interaction with the polar head group of the peptide. […] Also, it seems that planar configurations (benzene ring, C═O, nitrile) within the solvent helps to stabilize the gel. This might be explained with a more favourable interaction of p-, sp^2-, or sp-orbitals.

phase separation of emulsion [1]	effect of peptide concentration on organogelation ([2]; in ethyl acetate, concentrations above 10 mg/ml (1% w/v))	organogel formation in organic solvents [2]	preferred gelation solvent ([2]; screening for quantum dot loading)	effect of peptide concentration on organogelation ([2]; in acetonitrile, increasing concentration 1-20 mg/ml)	effect of peptide concentration on organogelation ([2]; in ethyl acetate, increasing concentration 5, 10, 20 mg/ml)	Molecule
No phase separation	only partial gelation	formed organogels	gelled preferably in ethyl acetate			CC[C@H](C)[C@H](NC(C)=O)C(=O)N[C@H](C(=O)N[C@@H](CC(=O)O)C(=O)O)C(C)C [Ac-IVD-COOH (L)] (Ac-Ile-Val-Asp-OH)
		formed organogels				CC[C@H](C)[C@H](NC(C)=O)C(=O)N[C@H](C(=O)N[C@@H](Cc1ccccc1)C(=O)O)C(C)C [Ac-IVF-COOH (L)]
		formed organogels				CC[C@H](C)[C@H](NC(C)=O)C(=O)N[C@H](C(=O)N[C@@H](Cc1c[nH]c2ccccc12)C(=O)O)C(C)C [Ac-IVW-COOH (L)] (Ac-Ile-Val-Trp-OH)
		formed organogels		increased size of the organogel	partial gelation	Ac-LIVAGD [Ac-LIVAGD-COOH (L)]
